The structures appear in SMILES notation. Marks after values point to notes of the source that are not given here.

In data set [1] the test system is TNF-α. Put plainly: TNF-α production (ELISA) in LPS-stimulated RAW264.7 cells. The format is cell-based, Mouse. The note with it: 20, 40, and 80 μM; 2 h pretreatment, LPS 500 ng/mL 20 h; concentration-dependent. Here is the method: Macrophages stimulated by pathogens and cytokines are activated and play an important role in regulating the immune response, inflammatory response, and metabolism. LPS-activated RAW264.7 cells were treated with 20, 40, or 80 μM of coumarin derivative 2 and cultured for 24 h, and the levels of TNF-α and IL-6 in the culture medium were analyzed.
RAW264.7 cells were seeded into 96-well plates and cultured for 24 h. After 2 h of treatment with 20, 40, or 80 μM of coumarin compound derivative 2, the cells were incubated with LPS (500 ng/mL) for 20 h. ELISA kits (R & D Systems, Minneapolis, MN, USA) were used to collect and analyze the cell supernatants for TNF-α and IL-6.
Figure 3 Effects of coumarin derivative 2 on IL-6 and TNF-α production and mRNA expression in LPS-stimulated RAW264.7 cells. (a) Effect of coumarin derivative 2 on TNF-α and IL-6 production in RAW264.7 cells. The RAW264.7 cells (1 × 10^5/well, 96-well plates) were pretreated with coumarin derivative 2 (20, 40, and 80 μM) for 2 h and incubated with LPS (500 ng/mL) for 20 h. An ELISA kit was used to analyze cell supernatants for TNF-α and IL-6. (b) Effect of coumarin derivative 2 on mRNA expression of IL-6 and TNF-α in RAW264.7 cells. […] IL-6 and TNF-α mRNA expression levels were measured via a real-time quantitative reverse transcription polymerase chain reaction.

The test system of data set [2] is LPS-stimulated RAW264.7 cells. Description: NO production (Griess reagent) in LPS-stimulated RAW264.7 cells. The format is cell-based, Mouse. Here is the method: A high concentration of NO promotes the synthesis of inflammatory mediators, leading to an inflammatory response, and has been reported to be a cause of various immune diseases. Therefore, this study was conducted to investigate the effect of coumarin derivatives on the production of NO induced by LPS stimulation in RAW264.7 cells. The cells were treated with coumarin derivatives at concentrations of 20, 40, and 80 μM for 2 h. Then, the cells were treated with LPS. After 20 h, the culture supernatant was recovered, and the amount of NO was measured. […] The anti-inflammatory activity of these derivatives depended on the position of the substituted group rather than the electron density of the substituted group.
The Griess reagent was used to measure NO production. RAW264.7 cells were seeded into a 96-well plate and cultured for 24 h. The cells were treated with 20, 40, and 80 μM of coumarin derivatives, cultured for 2 h, and then cultured with LPS (500 ng/mL) for 20 h. The same amount of cell supernatant and Griess reagent were used for the reaction, and absorbance was measured at 540 nm.

Data set [3] deals with TNF-α mRNA. Put plainly: TNF-α mRNA expression (qRT-PCR) in LPS-stimulated RAW264.7 cells. The format is cell-based, Mouse. The note with it: 20, 40, and 80 μM; 2 h pretreatment, LPS 500 ng/mL 6 h. The protocol: RAW264.7 cells were seeded into a 6-well plate (2 × 10^6 cells/well) and cultured for 24 h. The cells were treated with coumarin derivative 2 at 20, 40, and 80 μM and cultured for 2 h and with LPS (500 ng/mL) for 6 h.
The cells were washed with phosphate-buffered saline (PBS) and lysed with the RNeasy Mini kit (Qiagen, Hilden, Germany) for RNA isolation. RNA was converted to cDNA using the AccuPower reverse transcriptase Premix Kit (Bioneer, Daejeon, Republic of Korea). A Power SYBR Green PCR Master Mix (Applied Biosystems, Waltham, MN, USA) was used to perform polymerase chain reaction amplification. Amplification conditions were selected within the Quant 3 PCR system (Applied Biosystems). The data were normalized to the amount of glyceraldehyde 3-phosphate dehydrogenase.
Figure 3 Effects of coumarin derivative 2 on IL-6 and TNF-α production and mRNA expression in LPS-stimulated RAW264.7 cells. (a) Effect of coumarin derivative 2 on TNF-α and IL-6 production in RAW264.7 cells. The RAW264.7 cells (1 × 10^5/well, 96-well plates) were pretreated with coumarin derivative 2 (20, 40, and 80 μM) for 2 h and incubated with LPS (500 ng/mL) for 20 h. An ELISA kit was used to analyze cell supernatants for TNF-α and IL-6. […] IL-6 and TNF-α mRNA expression levels were measured via a real-time quantitative reverse transcription polymerase chain reaction.
In general terms: In qPCR the cycle at which signal appears reflects the starting amount.

A short description of data set [4]: in vitro. The format is cell-based. The conditions noted are these: mouse, RAW264.7 cells, then LPS (500 ng/mL) 20 h, read-out: Cell viability, Average (%). The protocol: To investigate the anti-inflammatory activity of coumarin derivatives, cell viability was analyzed by treating RAW264.7 cells with 23 types of coumarin derivatives at concentrations of 20, 40, and 80 μM for 2 h and with LPS for 20 h.
Mouse macrophage RAW264.7 cells were purchased from the Korea Cell Line Bank (Seoul, Republic of Korea) and cultured in Dulbecco’s Modified Eagle Medium (Corning, NY, USA) containing 10% fetal bovine serum and 1% penicillin/streptomycin at 37 °C and 5% CO2. The medium was changed every 2 days and subcultured when the cells grew > 80%.
EZ-Cytox cell viability assay kit (Dogen, Suwon, Republic of Korea) was used to measure cell viability according to the manufacturer’s instructions. RAW264.7 cells were seeded into a 96-well plate (1 × 10^5 cells/well) and treated with coumarin derivatives at concentrations of 20, 40, and 80 μM. After 2 h, the cells were treated with LPS (500 ng/mL) and cultured for 24 h in a 37 °C, 5% CO2 incubator. The culture supernatant was treated with 10% EZ-Cytox reagent, and a microplate reader was used to measure the absorbance at 450 nm.

A word on the IC50: it is the point on the concentration scale where inhibition reaches its midpoint. As a reminder, the viability is a read-out of living cells in per cent, often relative to untreated cells. Regarding `N#CC1=C(N)Oc2c(c(=O)oc3ccccc23)C1c1cccc(F)c1` (stereo not shown) [Coumarin derivative 2], in data set [1], the “LPS-induced TNF-α level” value is recorded as “significantly reduced”. For the same compound, the “NO production, Average” value in data set [2] (20 μM for 2 h, then LPS (500 ng/mL) 20 h, LPS alone 25.9, control 3.1) amounted to 22.53 µM. The “NO production, Average (μM)” value in data set [2] (40 μM for 2 h, then LPS (500 ng/mL) 20 h, LPS alone 25.9, control 3.1) was 15.24 *** μM; in data set [2] (80 μM for 2 h, then LPS (500 ng/mL) 20 h, LPS alone 25.9, control 3.1) it was 10.17 *** μM. Further, the “Anti-inflammatory effect (inhibition of NO secretion), in words” value in data set [2] (20, 40, and 80 μM, compared with LPS-only treatment) is “inhibited NO secretion in a concentration-dependent manner”. Also, the IC50 in data set [2] (Mus musculus, RAW264.7, read-out: IC50 of NO production inhibition) is 33.4 µM. In addition, the “TNF-α mRNA expression” value in data set [3] is “significantly suppressed”. Further, the viability at 22 h, 20 μM in data set [4] (20 μM for 2 h) stood at 106%. Further, the viability at 22 h, 40 μM in data set [4] (40 μM for 2 h) came to 97.1%. Also, the viability at 22 h, 80 μM in data set [4] (80 μM for 2 h) is 101%.

The record behind these values is paper PMC10298626 (International Journal of Molecular Sciences, 2023).
